In ChEMBL document CHEMBL1201862, “PubChem BioAssay data set” (2004):
Several values for one entry are separate records, joined by “and”; a condition that tells them apart may be missing. Equal entries are not always repeated. Activity calls are given as the source filed them.

Columns and labels:
Cytochrome P450 1A2 = target: T1, Cytochrome P450 1A2 (Homo sapiens, UniProt P05177);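 also: PubChem cytochrome P450 panel assay, CYP1A2 panel member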
T1 sequence (P05177 whole entry): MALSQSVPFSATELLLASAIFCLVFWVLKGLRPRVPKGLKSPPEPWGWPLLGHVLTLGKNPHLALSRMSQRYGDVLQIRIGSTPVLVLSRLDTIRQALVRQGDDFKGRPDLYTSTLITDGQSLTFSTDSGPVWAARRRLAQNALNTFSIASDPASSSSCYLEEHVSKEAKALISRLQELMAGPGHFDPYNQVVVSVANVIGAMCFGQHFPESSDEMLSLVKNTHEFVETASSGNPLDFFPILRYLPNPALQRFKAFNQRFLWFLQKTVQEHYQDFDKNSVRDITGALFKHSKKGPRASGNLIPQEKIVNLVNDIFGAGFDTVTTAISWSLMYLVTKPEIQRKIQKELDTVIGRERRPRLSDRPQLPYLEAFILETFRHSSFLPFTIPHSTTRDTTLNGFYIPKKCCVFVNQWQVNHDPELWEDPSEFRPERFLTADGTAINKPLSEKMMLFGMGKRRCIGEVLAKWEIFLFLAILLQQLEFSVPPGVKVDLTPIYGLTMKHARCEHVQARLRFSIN

Cytochrome P450 2C9 = Cytochrome P450 2C9 (Homo sapiens, UniProt P11712)
Cytochrome P450 2C9, sequence (P11712 whole entry): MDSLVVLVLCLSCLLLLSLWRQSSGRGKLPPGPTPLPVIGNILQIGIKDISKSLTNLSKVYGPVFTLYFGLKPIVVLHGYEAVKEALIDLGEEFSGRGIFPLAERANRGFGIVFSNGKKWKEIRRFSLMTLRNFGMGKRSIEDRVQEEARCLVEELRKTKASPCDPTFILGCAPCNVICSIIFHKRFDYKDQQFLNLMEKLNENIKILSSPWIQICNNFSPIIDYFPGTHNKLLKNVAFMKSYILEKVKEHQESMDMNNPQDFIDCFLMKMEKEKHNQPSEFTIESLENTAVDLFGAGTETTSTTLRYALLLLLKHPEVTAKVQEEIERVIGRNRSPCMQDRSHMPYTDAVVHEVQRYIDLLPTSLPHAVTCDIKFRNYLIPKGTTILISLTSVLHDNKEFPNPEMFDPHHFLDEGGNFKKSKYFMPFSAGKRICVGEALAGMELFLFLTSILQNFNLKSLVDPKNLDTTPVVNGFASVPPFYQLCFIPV

Cytochrome P450 2C19 = Cytochrome P450 2C19 (Homo sapiens, UniProt P33261); assay: Cytochrome panel assay with activity outcomes. Panel member name: p450-cyp2c19 Compounds with AC50 equal or less than 10 uM are considered active; type: functional; conditions: read-out: AC50
Cytochrome P450 2C19, sequence (P33261 whole entry): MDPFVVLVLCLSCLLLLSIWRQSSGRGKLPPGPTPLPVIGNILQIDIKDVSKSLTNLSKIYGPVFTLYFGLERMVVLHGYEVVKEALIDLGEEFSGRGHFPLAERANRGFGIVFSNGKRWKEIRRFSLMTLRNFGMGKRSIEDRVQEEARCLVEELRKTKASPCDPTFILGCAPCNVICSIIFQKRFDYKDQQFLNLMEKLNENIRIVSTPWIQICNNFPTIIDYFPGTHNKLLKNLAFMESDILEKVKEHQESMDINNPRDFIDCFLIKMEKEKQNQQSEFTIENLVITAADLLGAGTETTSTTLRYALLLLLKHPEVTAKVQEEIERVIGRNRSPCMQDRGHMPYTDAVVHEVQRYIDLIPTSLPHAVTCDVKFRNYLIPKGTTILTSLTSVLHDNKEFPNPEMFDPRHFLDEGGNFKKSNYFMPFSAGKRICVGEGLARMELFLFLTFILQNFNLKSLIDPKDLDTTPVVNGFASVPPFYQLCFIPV

Cytochrome P450 3A4 = Cytochrome P450 3A4 (Homo sapiens, UniProt P08684);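 also: CYP3A4 tested as one member of a cytochrome P450 panel screen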
Cytochrome P450 3A4, sequence (P08684 whole entry): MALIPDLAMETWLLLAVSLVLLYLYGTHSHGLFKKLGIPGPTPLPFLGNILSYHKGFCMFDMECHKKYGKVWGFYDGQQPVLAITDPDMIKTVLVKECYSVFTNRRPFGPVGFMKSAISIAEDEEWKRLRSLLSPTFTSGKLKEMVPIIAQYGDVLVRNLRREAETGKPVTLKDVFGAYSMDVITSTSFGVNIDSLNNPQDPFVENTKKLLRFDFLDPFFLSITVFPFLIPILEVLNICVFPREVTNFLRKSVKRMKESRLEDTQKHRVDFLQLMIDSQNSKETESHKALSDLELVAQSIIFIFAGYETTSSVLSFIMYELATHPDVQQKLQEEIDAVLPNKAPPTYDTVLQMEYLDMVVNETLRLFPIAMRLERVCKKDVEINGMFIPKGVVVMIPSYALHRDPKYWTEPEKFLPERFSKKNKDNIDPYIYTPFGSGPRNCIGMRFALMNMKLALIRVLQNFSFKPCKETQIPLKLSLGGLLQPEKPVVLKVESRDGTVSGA

Cytochrome P450 2D6 = Cytochrome P450 2D6 (Homo sapiens, UniProt P10635);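 also: CYP2D6 member of a cytochrome P450 panel assay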
Cytochrome P450 2D6, sequence (P10635 whole entry): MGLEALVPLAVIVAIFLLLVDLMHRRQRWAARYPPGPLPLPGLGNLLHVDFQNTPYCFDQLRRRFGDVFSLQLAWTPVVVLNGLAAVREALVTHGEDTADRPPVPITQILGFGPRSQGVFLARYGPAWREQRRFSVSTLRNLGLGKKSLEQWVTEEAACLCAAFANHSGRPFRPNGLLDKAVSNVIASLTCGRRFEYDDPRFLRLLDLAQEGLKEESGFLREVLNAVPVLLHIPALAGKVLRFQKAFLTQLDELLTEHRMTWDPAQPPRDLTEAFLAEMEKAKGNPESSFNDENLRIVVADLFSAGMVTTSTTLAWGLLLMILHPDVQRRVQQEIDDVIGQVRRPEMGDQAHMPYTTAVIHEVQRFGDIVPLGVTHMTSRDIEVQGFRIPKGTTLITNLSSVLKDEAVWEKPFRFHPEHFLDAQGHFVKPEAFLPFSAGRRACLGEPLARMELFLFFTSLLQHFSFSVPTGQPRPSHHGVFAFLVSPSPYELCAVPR

[1] = viability of uninfected HEp-2 cells – cell-based, HTS, cytotoxicity control for RSV inhibitor project, dose response (AID 2410); type: functional; conditions: human respiratory syncytial virus
[2] = target: T2, Corticotropin-releasing factor receptor 2/Corticotropin-releasing factor-binding protein (Homo sapiens, UniProt P24387+Q13324); assay: activators of CRF receptor 2 with binding protein – uHTS hits, confirmation (AID 602473); type: functional; conditions: read-out: EC50_Mean
T2 sequence (Q13324 whole entry): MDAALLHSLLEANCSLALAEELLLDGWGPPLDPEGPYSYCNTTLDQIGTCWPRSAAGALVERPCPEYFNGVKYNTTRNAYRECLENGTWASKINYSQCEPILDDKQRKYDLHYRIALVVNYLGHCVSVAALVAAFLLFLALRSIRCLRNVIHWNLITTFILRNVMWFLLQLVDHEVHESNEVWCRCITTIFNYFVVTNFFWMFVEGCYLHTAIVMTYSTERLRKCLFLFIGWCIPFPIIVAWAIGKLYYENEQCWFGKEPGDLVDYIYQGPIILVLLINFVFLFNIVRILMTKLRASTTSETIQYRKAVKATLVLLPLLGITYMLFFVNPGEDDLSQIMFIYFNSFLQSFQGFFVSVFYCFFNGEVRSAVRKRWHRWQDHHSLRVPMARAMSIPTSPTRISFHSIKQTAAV
T2 sequence (P24387 whole entry): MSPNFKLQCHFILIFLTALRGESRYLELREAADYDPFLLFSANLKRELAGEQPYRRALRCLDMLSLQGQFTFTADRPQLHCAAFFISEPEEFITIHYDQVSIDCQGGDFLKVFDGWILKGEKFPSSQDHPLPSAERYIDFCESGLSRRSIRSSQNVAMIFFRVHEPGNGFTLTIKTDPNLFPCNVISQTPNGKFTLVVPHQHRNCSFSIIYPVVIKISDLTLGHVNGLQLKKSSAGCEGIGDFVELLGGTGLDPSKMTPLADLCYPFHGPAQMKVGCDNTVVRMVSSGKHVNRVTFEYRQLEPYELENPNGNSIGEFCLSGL

[3] = target: T2, Corticotropin-releasing factor receptor 2/Corticotropin-releasing factor-binding protein; assay: Dose Response confirmation of uHTS hits for small molecule antagonists of the CRF-binding protein and CRF-R2 receptor complex.; type: functional; conditions: read-out: IC50_Mean
[4] = Trypanosoma cruzi growth suppression in host cells – NIH3T3 host cells, beta-gal luminescence, confirmation (AID 2044); type: functional, cell-based;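 also: intracellular parasites grown in NIH/3T3 mouse fibroblasts as host cells; luminescent beta-galactosidase reporter signal from transgenic T. cruzi replicating inside host cells; inhibitors lower the luminescence signal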
[5] = NIH3T3 cell viability loss – ATP luminescence, mouse fibroblasts, counter-screen, dose response (AID 2010); type: functional, cell-based;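 also: cells exposed to compound for about 90 hours before reading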
INS1 = assay: INS-1E survival protection against cytokine death – cell-based, luminescence, retest, dose response (AID 449756); type: functional; conditions: Rattus norvegicus;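 also: cell death triggered by IL-1 beta plus TNF-alpha plus IFN-gamma mixture; protective hits raise ATP signal compared with cytokine alone wells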
[6] = Luminescence Cell-Based Dose Response HTS to Identify Inhibitors of 5'UTR Stem-Loop Driven Prion Protein mRNA Translation in H4 Neuroglioblastoma Cells. [Related pubchem assays: 1827 (Project Summary), 1813 (Primary HTS)]; type: functional
[7] = luciferase reporter signal suppression in cells – H4 neuroglioma cells, luminescence, dose response (AID 1990); type: functional, cell-based
[8] = alpha-synuclein stem-loop luciferase translation blockers – H4 neuroglioma cells, luminescence, confirmation (AID 1988); type: functional, cell-based

CC(C)OC(=O)/C(=C\c1ccc2c(c1)c1ccccc1n2C)NC(=O)c1ccccc1
AC50 (Cytochrome P450 1A2): 2.24 µM (inconclusive)
AC50 (Cytochrome P450 2C9): 6.31 µM (inconclusive)
AC50 (Cytochrome P450 2C19): 2.51 µM (inconclusive)

COCCn1c(=O)c(-c2cc(F)cc(F)c2)nc2cnc(N(C)C)nc21
AC50 (Cytochrome P450 1A2): 5.01 µM (inconclusive)

Clc1ccccc1OCCCCN1CCCC1
AC50 (Cytochrome P450 1A2): 15.8 µM (inconclusive)
AC50 (Cytochrome P450 2C19): 28.2 µM (inconclusive)

O=C1c2ccccc2NC(c2ccc(F)cc2)N1Cc1ccco1 (configuration not stated)
AC50 (Cytochrome P450 3A4): 14.1 µM (inconclusive)
AC50 (Cytochrome P450 2D6): 0.398 µM (inconclusive)

O=C(NCc1nnc(SCC(=O)N2CCCc3ccccc32)n1-c1ccccc1)c1cccc2ccccc12
CC50 [1]: > 50 µM (active)

O=c1c2ccccc2nc2n1C(CBr)CN2 (configuration not stated)
EC50 [2]: > 53 µM (inactive)
IC50 [3]: > 47.1 µM (inactive)

CN1CCN(C2=Nc3ccccc3Oc3ccc(Cl)cc32)CC1 [LOXAPINE SUCCINATE]
AC50 (Cytochrome P450 1A2): 31.6 µM (inconclusive) and 3.16 µM (inconclusive)
AC50 (Cytochrome P450 2D6): 10 µM (inconclusive) and 31.6 µM (inconclusive)

NCOC(=O)Cc1ccc(Br)cc1
AC50 (Cytochrome P450 1A2): 0.2 µM (active)

CCCN[C@@H]1CCc2c(OC)cccc2[C@@H]1C
AC50 (Cytochrome P450 1A2): 31.6 µM (inconclusive)

CC(=O)Nc1ccc(S(=O)(=O)NC(CC(=O)NCCC2=CCCCC2)C(C)C)cc1 (configuration not stated)
AC50 (Cytochrome P450 2C9): 8.91 µM (inconclusive)
AC50 (Cytochrome P450 2D6): 0.708 µM (inconclusive)

CC12CCC(C(=O)Nc3cccc4ccccc34)(C1Br)C2(C)C (configuration not stated)
AC50 (Cytochrome P450 2C9): 2.51 µM (inconclusive)
AC50 (Cytochrome P450 2D6): 20 µM (inconclusive)

O=c1c2c3c(sc2n(CCN2CCCCC2)c(=O)n1Cc1ccco1)CCCCC3
EC50 [4]: 2.76 µM (active)
EC50 [5]: > 30 µM (not active)
AC50 (INS1): 17.9 µM (active)

O=C(Nc1ccncc1)Nc1cccc(C(F)(F)F)c1
CC50 [1]: > 50 µM (active)

CCOC(=O)c1c(C)n(C)c2ccc(OC)c(NS(=O)(=O)c3ccc(Cl)s3)c12
AC50 (Cytochrome P450 1A2): 5.62 µM (inconclusive)
AC50 (Cytochrome P450 2C9): 3.16 µM (inconclusive)
AC50 (Cytochrome P450 3A4): 1.58 µM (inconclusive)

O=C(C1CCC1)N1CCc2cc(S(=O)(=O)Nc3ccc4c(c3)OCCO4)ccc21
AC50 (INS1): 5.88 µM (active)

Cc1onc(-c2ccccc2Cl)c1C(=O)Nc1cccc2cccnc12
CC50 [1]: 3.16 µM (active)

COc1cccc(Cn2c(=O)c(C)nc3cnc(Nc4ccccc4)nc32)c1
AC50 (Cytochrome P450 2D6): 1 µM (inconclusive)

COc1ccccc1CNc1ncncc1-c1cccc(NS(C)(=O)=O)c1
AC50 (Cytochrome P450 2D6): 12.6 µM (inconclusive)

COc1ccc2[nH]cc(CCNc3ncncc3-c3c(C)noc3C)c2c1
AC50 (Cytochrome P450 2C9): 1.26 µM (inconclusive)
AC50 (Cytochrome P450 2D6): 20 µM (inconclusive)

COc1ccc(-n2c(=O)c(CCc3ccccc3)nc3cnc(OC)nc32)cc1
AC50 (Cytochrome P450 2C9): 7.94 µM (inconclusive)
AC50 (Cytochrome P450 2D6): 20 µM (inconclusive)

N#Cc1cnn2c(-c3cccc(C(F)(F)F)c3)ccnc12
CC50 [1]: 47 µM (active)

Cc1ccccc1NC(=O)NC1(C(=O)N2CCOCC2)CCCCC1
EC50 [6]: > 120 µM (not active)
EC50 [7]: > 120 µM (not active)
EC50 [8]: > 120 µM (not active)

c1ccc2sc(N3CCN(Cc4ccc5c(c4)OCO5)CC3)nc2c1
AC50 (Cytochrome P450 2C9): 7.94 µM (inconclusive)
AC50 (Cytochrome P450 2D6): 39.8 µM (inconclusive)

CSc1nnnn1-c1ccc(Cl)cc1
CC50 [1]: 30.7 µM (active)

CCC/C=C(\CCC)C(NS(=O)(=O)c1ccccc1)c1ccc(C(F)(F)F)cc1 (configuration not stated)
AC50 (Cytochrome P450 1A2): 12.6 µM (inconclusive)
